On the set-up of data set [1]: species or system human. The following applies: in vivo, 1.5 mg/kg. An excerpt:
In accordance with the present invention, the solid food to be checked and swallowed as the meal for a gastric emptying test is in the form of an edible, egg fortified muffin from a microwaveable recipe, freshly prepared prior to use. The base formulation consists of a bulk mix containing 92 grams of powdered, defatted milk; 320 grams of apple flavored instant muffin mix, 80 grams of finely grated Parmesan cheese and 0.6 gram of pulverized L-2-oxo[^13C]thiazolidine-4-carboxylic acid (OTZ) tracer probe. The mixture is homogenized in a food mill and stored in individual portions of 61.625 grams. Prior to cooking, the individual muffin mix is reconstituted in a microwaveable plastic dish with 110 ml of water and 61 grams of defatted egg substitute and then thoroughly blended and allowed to stand covered for 0.5 hour at room temperature. After shaking well, the mixture is uncovered and microwaved in a 500 watt oven for 4 minutes at medium power, rotated 120 degrees, and again microwaved for 4 minutes. The muffin is loosened around the edges, allowed to cool, and removed from the cooking container. […]
The samples are analyzed for isotopic content and corrected for interindividual differences in endogenous CO2 production rate in order to obtain the appropriate data points. […]

Another data set deals with gastric emptying. Briefly: Breath test with liquid test meal given with drugs known to accelerate or delay gastric emptying (FIG. 6). Conditions: [acyl]^13C-leucine as emptying probe. It counts as in vivo, human. An excerpt: In FIG. 6 summarizing this experiment, metoclopramide is shown as a prokinetic agent. Similarly, loperamide is shown to delay emptying.

Results on three compounds are retold here after patent US6740305B1, “Assessment of gastric emptying disorders” (Xanthus Life Scienes, Inc., priority 1999, dated 2004).

On to `O=C(O)[C@@H]1CS[13C](=O)N1` [2-[^13C -OTZ, L-2-oxo[^13C]thiazolidine-4-carboxylic acid], for which, in data set [1], the “Absorption kinetics from appearance pattern of ^13CO2 in breath” value was “zero-order absorption kinetics” and the “T1/2 (half-emptying time)” value is 19 +/− 4.

For the compound `CCN(CC)CCNC(=O)c1cc(Cl)c(N)cc1OC` [Metoclopramide, metoclopramide], in the data set on gastric emptying, the “Effect on gastric emptying” value is recorded as “accelarated the gastric emptying profile in a statistically significant manner”. Same read-out and setting: then `CN(C)C(=O)C(CCN1CCC(O)(c2ccc(Cl)cc2)CC1)(c1ccccc1)c1ccccc1` [loperamide], with “emptying times trending toward greater than normal half-emptying values”.
